For one assay, the target named is Met(Y1248D)(h) (Homo sapiens, UniProt P08581, Y1230D). As to the kind of experiment: Kinase Profiler. Type of assay: biochemical.
In a further assay the target is MST3(h) (Homo sapiens, UniProt Q9Y6E0). Nature of the assay: Kinase Profiler. Type of assay: biochemical.
The target in a further assay is ZAP-70(h) (Homo sapiens, UniProt P43403). As to the kind of experiment: Kinase Profiler. Type of assay: biochemical.
The next assay has as its target Cannabinoid CB2 (Homo sapiens, UniProt P34972). As to the kind of experiment: Safety screen. Type of assay: binding.
The next assay addresses CaMKK1(h) (Homo sapiens, UniProt Q8N5S9). Nature of the assay: Kinase Profiler. Type of assay: biochemical.
For another assay, the target named is RAC1 (Homo sapiens, UniProt P63000). Nature of the assay: Nucleotide exchange kinetics (mant-GTP/mant-GDP fluorescence). Type of assay: biochemical. More on the design: Full-length RAC1 carrying a 6xHis tag in C-terminus was purified as previously described; 6xHis (C); made in house. On the procedure: Figure 2 Identification of a new RAC1 inhibitor (A) Effect of A41 and NSC23766 on ruffle formation (white arrows) induced by EGF (10 ng/mL) in NIH 3T3 cells in serum-free culture medium (CTL). Inhibitors were added at indicated concentration 1 h prior to EGF stimulation. To assess cytoskeleton organization, cells were incubated with Alexa Fluor 488 phalloidin to visualize F-actin. Results shown are representative of 3 independent experiments. Corresponding concentration-response curves have been established by counting the percentages of cells with ruffles (scale bars: 10 μm). (B) Immunoblot analysis and associated quantification of RAC-GTP level and total RAC expression in NIH 3T3 cells stimulated by EGF (10 ng/mL, 5 min) and pre-incubated or not (−) with NSC23766, A41, or A415 at 10^−5 M for 1 h (∗∗∗p < 0.001 vs. controls without EGF stimulation, ^###p < 0.001 vs. controls with EGF stimulation) (N > 3). (C) Representative surface plasmon resonance (SPR) sensograms of binding of immobilized RAC1 with increasing concentrations of A41 with or without EDTA (20 mM) (N > 3). (D) Representative in vitro nucleotide exchange catalyzed by the DH-PH of TIAM (10 nM) measured by the binding of fluorescent mant-GTP (1 μM) to RAC1 (0.5 μM, preloaded with GDP) in the presence of indicated concentrations of A41 (out of N = 6). Dotted lines correspond to the experimental curves, and continuous lines represent the fit of experimental points. (E) Kobs and Kmax were determined in each condition (N = 6). (F) Predicted binding modes of A4 to the NSC23766-binding site (left) or the GDP-binding pocket of RAC1 (right). In the NSC23766-binding site of RAC1, the compound A4 (carbon atoms in blue) makes 2 hydrogen bonds (green dotted line) with Ser71 (S71) and 10 hydrophobic interactions (pink dotted line) with Ala3 (A3), Lys5 (K5), Val36 (V36), Trp56 (W56), Tyr64 (Y64), and Leu67 (L67) leading to a docking score of −6.03 kcal/mol. The GDP molecule is shown with fine line. The P loop is shown in yellow, the switch 1 in orange, and the switch 2 in green. In the GDP-binding pocket, A4 establishes 6 hydrogen bonds with Gly15 (G15), Lys16 (K16), Cys18 (C18), and Lys116 (K116), 1 carbon hydrogen bond with Lys116, and 9 hydrophobic interactions with Cys18, Ile33 (I33), Lys116, Leu119 (L119), and Leu160 (L160), resulting in a docking score of −10.32 kcal/mol.
Figure 3 Inhibitory mechanism of A41 (A–D) RAC1 activity was monitored by the change in mant-GTP/GDP fluorescence induced by its binding to or releasing from RAC1 (A–D). GDP-bound RAC1 (0.5 μM) was incubated with TRIO (10 nM) and the indicated concentrations of mant-GTP without and with A41 (5 μM) (A–C). Mant-GDP-bound RAC1 (0.5 μM) was incubated with TRIO (10 nM) and GTP (1 μM) without and with A41 (5 μM) (D). AU: arbitrary fluorescence units. All experiments were done in triplicate. Kmax and Kmin are expressed as mean ± SEM. ∗∗p < 0.01 and ∗∗∗p < 0.001 vs. TRIO. (E) Deconvoluted mass spectra generated from crude mass spectrum analyses to evaluate RAC1 photolabeling with [N3]-A41 by LC-HRMS on native protein. (F) Representative mass spectra of both labeled and unlabeled […] peptide during LC-HRMS analysis of RAC1 photolabeling with [N3]-A41 after trypsin digestion. (G) Predicted binding mode of A41 to the GDP-binding pocket of RAC1. Compound A41 (orange) makes 4 hydrogen bonds (green dotted line) with Lys16 (K16), Cys18 (C18), and Lys116 (K116), 2 carbon hydrogen bond (light green dotted line) with Val14 (V14) and Lys116 (K116), and 7 hydrophobic interactions (pink dotted line) with Cys18 (C18), Phe28 (F28), Lys116 (K116), Ala159 (A159), and Leu160 (L160). The P loop is shown in yellow, the switch 1 in orange, and the switch 2 in green.
Full-length RAC1 carrying a 6xHis tag in C-terminus was purified as previously described.[64] Full-length RAC2, RHOG, RHOA and CDC42 were purified as previously described.[64]^,[65] […]

In another assay the target is MKK4(m) (Mus musculus, UniProt P47809). Nature of the assay: Kinase Profiler. Type of assay: biochemical.
For a further assay, the target named is Histamine H2 (Homo sapiens, UniProt P25021). As to the kind of experiment: Safety screen. Type of assay: binding.
The target of the next assay is PDGFRα(h) (Homo sapiens, UniProt P16234). As to the kind of experiment: Kinase Profiler. Type of assay: biochemical.
A further assay has as its target PRP4(h) (Homo sapiens, UniProt Q13523). Nature of the assay: Kinase Profiler. Type of assay: biochemical.
In the next assay the target is SIK(h) (Homo sapiens, UniProt P57059). Nature of the assay: Kinase Profiler. Type of assay: biochemical.
Assay [1] deals with Protein Ser/Thr Kinase, PKC, Non- Selective. Nature of the assay: Safety screen. Type of assay: biochemical, rat.
Method: (§1) The kinase profiler was performed by the company Eurofins (Discovery, Panlab and Cerep).
In assay [2] the target is Serotonin (5-Hydroxytryptamine) 5-HT2A (Homo sapiens, UniProt P28223). Nature of the assay: Safety screen. Type of assay: binding.
Method: (§2) Blood cell counts, kinase profiler, safety screen, bacterial cytotoxicity, Ames, micronucleus assays were performed by the company Eurofins (France). The kinase profiler was performed by the company Eurofins (Discovery, Panlab and Cerep).

Sequence of ZAP-70(h) (P43403 whole entry): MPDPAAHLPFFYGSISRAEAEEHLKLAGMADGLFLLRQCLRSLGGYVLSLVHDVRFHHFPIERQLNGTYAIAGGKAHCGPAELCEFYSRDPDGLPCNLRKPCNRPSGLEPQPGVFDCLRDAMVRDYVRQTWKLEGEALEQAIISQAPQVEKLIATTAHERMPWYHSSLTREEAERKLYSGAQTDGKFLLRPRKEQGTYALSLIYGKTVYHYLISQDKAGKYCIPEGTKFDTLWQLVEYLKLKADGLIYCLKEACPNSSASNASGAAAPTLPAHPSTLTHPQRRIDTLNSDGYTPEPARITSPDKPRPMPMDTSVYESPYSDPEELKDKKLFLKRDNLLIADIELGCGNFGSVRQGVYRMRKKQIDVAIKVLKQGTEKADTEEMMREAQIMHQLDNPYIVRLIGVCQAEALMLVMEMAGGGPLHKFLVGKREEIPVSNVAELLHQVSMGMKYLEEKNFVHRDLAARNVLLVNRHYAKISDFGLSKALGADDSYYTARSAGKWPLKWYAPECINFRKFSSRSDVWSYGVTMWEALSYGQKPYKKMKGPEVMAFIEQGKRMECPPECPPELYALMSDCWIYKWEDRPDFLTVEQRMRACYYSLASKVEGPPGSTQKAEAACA
Sequence of Histamine H2 (P25021 whole entry): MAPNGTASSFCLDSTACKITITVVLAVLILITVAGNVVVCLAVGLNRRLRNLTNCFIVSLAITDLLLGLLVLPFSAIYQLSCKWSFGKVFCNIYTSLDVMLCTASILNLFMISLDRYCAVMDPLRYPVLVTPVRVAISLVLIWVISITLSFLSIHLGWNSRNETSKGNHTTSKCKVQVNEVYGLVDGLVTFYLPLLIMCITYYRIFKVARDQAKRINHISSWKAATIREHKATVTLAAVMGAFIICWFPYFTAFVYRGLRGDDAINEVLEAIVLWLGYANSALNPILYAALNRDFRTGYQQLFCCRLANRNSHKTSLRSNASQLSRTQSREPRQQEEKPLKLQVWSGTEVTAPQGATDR
Sequence of PRP4(h) (Q13523 whole entry): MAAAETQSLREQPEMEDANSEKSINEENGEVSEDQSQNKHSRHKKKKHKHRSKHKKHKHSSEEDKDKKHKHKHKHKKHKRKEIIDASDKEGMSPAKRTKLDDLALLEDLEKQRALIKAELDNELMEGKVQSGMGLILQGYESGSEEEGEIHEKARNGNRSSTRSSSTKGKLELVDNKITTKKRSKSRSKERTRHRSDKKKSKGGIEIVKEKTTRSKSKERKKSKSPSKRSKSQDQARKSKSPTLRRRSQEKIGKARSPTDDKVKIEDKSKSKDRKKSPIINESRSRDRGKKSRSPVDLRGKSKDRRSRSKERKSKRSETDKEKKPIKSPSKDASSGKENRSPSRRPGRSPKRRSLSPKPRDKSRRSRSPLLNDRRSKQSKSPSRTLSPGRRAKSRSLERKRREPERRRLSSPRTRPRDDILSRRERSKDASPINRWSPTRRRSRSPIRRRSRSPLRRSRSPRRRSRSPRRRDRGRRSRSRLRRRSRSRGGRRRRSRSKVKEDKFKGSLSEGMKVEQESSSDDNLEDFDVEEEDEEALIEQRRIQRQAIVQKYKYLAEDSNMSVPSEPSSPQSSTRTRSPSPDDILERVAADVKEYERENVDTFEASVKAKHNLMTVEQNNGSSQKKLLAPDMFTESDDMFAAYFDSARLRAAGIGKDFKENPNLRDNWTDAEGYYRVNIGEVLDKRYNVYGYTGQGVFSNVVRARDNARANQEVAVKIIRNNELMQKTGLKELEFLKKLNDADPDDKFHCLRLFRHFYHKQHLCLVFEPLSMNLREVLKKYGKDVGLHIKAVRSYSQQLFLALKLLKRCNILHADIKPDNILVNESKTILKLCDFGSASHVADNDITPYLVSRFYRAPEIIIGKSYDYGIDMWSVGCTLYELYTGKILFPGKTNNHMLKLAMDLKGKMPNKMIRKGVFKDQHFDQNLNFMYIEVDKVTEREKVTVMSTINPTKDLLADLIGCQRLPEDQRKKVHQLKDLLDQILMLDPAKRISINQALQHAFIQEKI
Sequence of MKK4(m) (P47809 2-397 limits assumed): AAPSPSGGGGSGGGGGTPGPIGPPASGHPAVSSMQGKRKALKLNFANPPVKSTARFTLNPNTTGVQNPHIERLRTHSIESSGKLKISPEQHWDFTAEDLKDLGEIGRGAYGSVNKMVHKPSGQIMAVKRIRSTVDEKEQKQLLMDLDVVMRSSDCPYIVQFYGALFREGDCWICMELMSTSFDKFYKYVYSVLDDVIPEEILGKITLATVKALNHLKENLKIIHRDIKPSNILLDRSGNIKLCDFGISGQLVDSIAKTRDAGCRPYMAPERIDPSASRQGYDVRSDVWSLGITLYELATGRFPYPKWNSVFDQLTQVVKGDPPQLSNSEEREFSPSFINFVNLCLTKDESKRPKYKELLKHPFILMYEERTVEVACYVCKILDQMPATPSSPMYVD
Sequence of CaMKK1(h) (Q8N5S9 whole entry): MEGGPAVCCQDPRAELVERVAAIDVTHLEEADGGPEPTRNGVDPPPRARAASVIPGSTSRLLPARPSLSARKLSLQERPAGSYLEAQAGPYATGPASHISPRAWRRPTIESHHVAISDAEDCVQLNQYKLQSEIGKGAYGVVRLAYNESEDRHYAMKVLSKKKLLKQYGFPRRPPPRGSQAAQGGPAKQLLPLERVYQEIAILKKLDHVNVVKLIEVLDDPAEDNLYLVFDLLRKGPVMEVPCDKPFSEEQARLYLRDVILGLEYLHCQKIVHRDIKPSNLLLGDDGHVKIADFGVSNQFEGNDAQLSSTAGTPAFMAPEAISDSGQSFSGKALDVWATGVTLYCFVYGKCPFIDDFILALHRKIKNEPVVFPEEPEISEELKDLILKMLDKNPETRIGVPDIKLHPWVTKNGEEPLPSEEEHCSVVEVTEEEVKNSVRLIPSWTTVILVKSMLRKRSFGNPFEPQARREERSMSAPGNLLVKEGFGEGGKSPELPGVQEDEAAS
Sequence of SIK(h) (P57059 whole entry): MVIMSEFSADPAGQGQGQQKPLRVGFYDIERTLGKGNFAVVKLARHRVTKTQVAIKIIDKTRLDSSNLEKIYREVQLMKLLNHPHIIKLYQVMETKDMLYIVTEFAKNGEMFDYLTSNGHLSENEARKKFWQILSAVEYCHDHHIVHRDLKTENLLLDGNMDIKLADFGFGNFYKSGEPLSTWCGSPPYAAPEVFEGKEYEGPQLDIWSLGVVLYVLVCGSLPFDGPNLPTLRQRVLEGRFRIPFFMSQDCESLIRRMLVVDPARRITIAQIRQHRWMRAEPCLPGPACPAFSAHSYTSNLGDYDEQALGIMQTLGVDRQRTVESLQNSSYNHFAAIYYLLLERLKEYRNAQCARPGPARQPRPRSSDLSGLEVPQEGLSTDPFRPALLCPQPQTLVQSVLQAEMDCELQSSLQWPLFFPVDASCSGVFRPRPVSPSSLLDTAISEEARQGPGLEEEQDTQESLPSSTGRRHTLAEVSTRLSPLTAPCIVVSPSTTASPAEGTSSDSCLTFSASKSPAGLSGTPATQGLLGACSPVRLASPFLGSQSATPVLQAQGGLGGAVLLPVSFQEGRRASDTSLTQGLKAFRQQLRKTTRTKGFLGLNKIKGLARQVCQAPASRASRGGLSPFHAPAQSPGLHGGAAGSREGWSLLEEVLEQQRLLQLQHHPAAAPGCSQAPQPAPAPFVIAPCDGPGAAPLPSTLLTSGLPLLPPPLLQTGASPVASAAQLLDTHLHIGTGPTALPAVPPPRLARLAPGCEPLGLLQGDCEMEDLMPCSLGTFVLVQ
Sequence of PDGFRα(h) (P16234 24-1089): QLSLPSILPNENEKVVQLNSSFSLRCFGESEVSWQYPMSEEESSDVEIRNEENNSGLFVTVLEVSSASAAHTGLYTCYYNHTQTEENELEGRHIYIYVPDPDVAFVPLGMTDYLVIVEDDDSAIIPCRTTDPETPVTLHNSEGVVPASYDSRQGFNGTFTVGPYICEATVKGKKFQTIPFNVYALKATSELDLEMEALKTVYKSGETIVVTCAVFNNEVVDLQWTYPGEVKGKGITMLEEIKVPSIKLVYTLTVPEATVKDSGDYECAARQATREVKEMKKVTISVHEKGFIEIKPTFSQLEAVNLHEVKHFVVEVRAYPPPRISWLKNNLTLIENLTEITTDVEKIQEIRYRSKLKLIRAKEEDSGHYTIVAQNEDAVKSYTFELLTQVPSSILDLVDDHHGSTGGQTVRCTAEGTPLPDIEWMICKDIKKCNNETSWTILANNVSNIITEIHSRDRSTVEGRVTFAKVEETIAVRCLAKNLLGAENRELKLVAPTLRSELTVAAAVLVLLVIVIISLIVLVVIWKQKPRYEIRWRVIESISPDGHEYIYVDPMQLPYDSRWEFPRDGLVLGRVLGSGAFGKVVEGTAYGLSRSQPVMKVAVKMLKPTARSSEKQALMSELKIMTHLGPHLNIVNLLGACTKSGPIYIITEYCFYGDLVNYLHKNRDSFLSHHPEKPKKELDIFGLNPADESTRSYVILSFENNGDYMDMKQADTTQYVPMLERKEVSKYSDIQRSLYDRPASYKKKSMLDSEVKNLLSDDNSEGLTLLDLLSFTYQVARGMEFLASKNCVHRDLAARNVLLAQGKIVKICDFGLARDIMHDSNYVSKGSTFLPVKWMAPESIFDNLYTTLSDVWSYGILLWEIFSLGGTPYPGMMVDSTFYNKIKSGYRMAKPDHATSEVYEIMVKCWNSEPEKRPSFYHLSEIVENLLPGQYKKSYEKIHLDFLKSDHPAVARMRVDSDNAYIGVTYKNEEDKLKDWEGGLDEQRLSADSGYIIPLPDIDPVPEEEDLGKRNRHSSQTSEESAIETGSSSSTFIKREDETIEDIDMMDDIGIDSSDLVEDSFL
Method for CaMKK1(h): as §1
Method for Cannabinoid CB2: Blood cell counts, kinase profiler, safety screen, bacterial cytotoxicity, Ames, micronucleus assays were performed by the company Eurofins (France).
Method for Histamine H2: as §2
Method for MKK4(m): as §1
Method for MST3(h): as §1
Method for Met(Y1248D)(h): as §1
Method for PDGFRα(h): as §1
Method for PRP4(h): as §1
Method for SIK(h): as §1
Method for ZAP-70(h): as §1

With `COc1ccc(OC)c(NS(=O)(=O)c2ccc(NC(=O)CCSc3ccc(C)cc3)cc2)c1` [Compound A41], the “Activity(%)” value at Met(Y1248D)(h) worked out at 118%; at MST3(h), 95%; on ZAP-70(h), 108%; on CaMKK1(h) it was 95%; at MKK4(m), 109%; on PDGFRα(h) it was 92%. Also, the “Activity(%)” value at PRP4(h) was determined as 110%; on SIK(h), 144%. For the same compound, the “% inh.” value at Cannabinoid CB2 is recorded as 36%; at Histamine H2 it was -14%; in assay [1], 48%; in [2], 84%. In addition, at RAC1, the “Inhibition of RAC1 activity (nucleotide exchange assay)” value is reported as 46%. Moreover, the “TRIO-induced GDP dissociation” value on RAC1 (A41 5 μM, mant-GDP-bound RAC1, GTP 1 μM) is given as “no effect”. The “inhibitory effect on TRIO-induced nucleotide exchange” value on RAC1 (A41 5 μM, mant-GTP 5 μM) is reported as “abolished”; against RAC1 (A41 5 μM, mant-GTP increased from 1 to 2.5 μM), “strongly decreased”. For the same compound, on RAC1 (TIAM DH-PH 10 nM, mant-GTP 1 μM, concentration-dependent), the “plateau (Kmax) of nucleotide exchange” value was “decreased the plateau”. Moreover, at RAC1 (no GEF), the “spontaneous activity of RAC1” value was “without affecting”.

The record behind these values is article PMC12281424, “A Rac-specific competitive inhibitor of guanine nucleotide binding reduces metastasis in triple-negative breast cancer” (Cell Reports Medicine, 2025).
